From PubChem BioAssay (NCI)
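Five concentrations, 48 hours, 96-well plates. GI50 = concentration required for 50% inhibition of growth. TGI marks complete inhibition of growth.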

What was measured:
Assay in all cases: NCI tumour cell line growth inhibition, 48 h
[1] = test system: LOX IMVI melanoma
[2] = test system: OVCAR-3 ovarian
[3] = test system: KM12 colon
[4] = test system: CAKI-1 renal
[5] = test system: UACC-257 melanoma
[6] = test system: SF-539 CNS
[7] = test system: COLO 205 colon
[8] = test system: NCI/ADR-RES ovarian
[9] = test system: SK-MEL-5 melanoma
[10] = test system: TK-10 renal

Row | Structure (SMILES) | TGI [1] [µM] | GI50 [2] [µM] | TGI [2] [µM] | TGI [3] [µM] | GI50 [4] [µM] | TGI [4] [µM] | GI50 [5] [µM] | TGI [5] [µM] | GI50 [6] [µM] | TGI [6] [µM] | GI50 [7] [µM] | TGI [7] [µM] | TGI [8] [µM] | GI50 [9] [µM] | TGI [9] [µM] | GI50 [10] [µM] | TGI [10] [µM] | GI50 [1] [µM] | GI50 [3] [µM] | GI50 [8] [µM]
1 | Cc1c(CNc2ccc(Cl)c(C(=O)NC(CC(=O)O)C(=O)O)c2)ccc2nc(N)nc(N)c12 (configuration not stated) | > 1000 | 16.8 | > 1000 | > 1000 | 0.617 | > 1000 | 2.97 | > 1000 | 0.446 | > 1000 | 114 | > 1000 | > 1000 | 0.36 | > 1000 | 363 | > 1000 | – | – | –
2 | C=CCNC1=C2C[C@@H](C)C[C@@H](OC)C(OC(=O)CCCN(C)C)[C@H](C)/C=C(\C)[C@@H](OC(N)=O)[C@H](OC)/C=C\C=C(/C)C(=O)NC(=CC1=O)C2=O (some centres not stated) | 21.7 | – | 11.7 | 14.6 | – | 25.2 | – | 27.5 | – | 19.3 | – | 6.5 | 52.1 | – | 8.73 | – | 25.1 | – | – | –
3 | Cc1c(-c2ccccc2)c(C#N)c2nnn(-c3ccccc3)c(=O)n12 | > 100 | – | > 100 | > 100 | – | > 100 | – | > 100 | – | > 100 | – | > 100 | > 100 | – | > 100 | – | > 100 | – | – | –
4 | CN(C(=O)C12C3C4(C(=O)O)C1(C(=O)N(C)C(C)(C)C)C1C2(C(=O)O)C3(C(=O)N(C)C(C)(C)C)C14C(=O)N(C)C(C)(C)C)C(C)(C)C (configuration not stated) | > 100 | – | > 100 | > 100 | – | > 100 | – | > 100 | – | > 100 | – | > 100 | > 100 | – | > 100 | – | > 100 | – | – | –
5 | CCSSCS(C)(=O)=O | > 100 | – | 99.2 | > 100 | – | > 100 | – | 57.1 | – | 29.5 | – | 23.5 | 83.8 | – | > 100 | – | > 100 | – | – | –
6 | CC/C(Cl)=N\OC(=O)Nc1ccc(OC)cc1 | 4.89 | – | 10.7 | 31.6 | – | 3.07 | – | 30.2 | – | 9.51 | – | 3.92 | 15 | – | 14.6 | – | 18.2 | – | – | –
7 | Cc1cc(NS(=O)(=O)c2ccc(NC(=O)c3ccc4nc5ccccc5c(Nc5ccc(S(=O)(=O)N=C(N)N)cc5)c4c3)cc2)no1 | 23.1 | – | 34.6 | 32.2 | – | 33.6 | – | 67.1 | – | 44.9 | – | 38.5 | 57.5 | – | 30.5 | – | 41.4 | – | – | –
8 | Nn1c(Cc2ccc(Cl)cc2)n[nH]c1=O | > 100 | – | > 100 | > 100 | – | > 100 | – | > 100 | – | > 100 | – | > 100 | > 100 | – | > 100 | – | > 100 | – | – | –
9 | CCN(CC)CCCCCCCCNc1c2ccc(Cl)cc2nc2ccc(OC)cc12 | 4.94 | 1.91 | 4.33 | 3.92 | 2.37 | 6.67 | 1.97 | 3.57 | 1.42 | 2.87 | 1.43 | 2.88 | 10.3 | 1.54 | 2.89 | 1.83 | 4.24 | 1.48 | 1.42 | 2.46
10 | CC1(C)CCC[C@]2(C)[C@@H]1CC[C@@]13O[C@@H]1C1=C(CO)C(=O)O[C@]14O[C@@H]4[C@@H]23 | 24 | – | 27.1 | 63.8 | – | 36.4 | – | 35.8 | – | 37.6 | – | 40.3 | 39.1 | – | 31.7 | – | 38 | – | – | –
11 | C=CCOc1ccc(C2c3c([nH][nH]c3=O)CC(O)(OCC)C2C(=O)OCC)cc1OC (configuration not stated) | > 100 | – | > 100 | > 100 | – | > 100 | – | > 100 | – | > 100 | – | > 100 | > 100 | – | > 100 | – | > 100 | – | – | –
12 | Oc1nc(N/N=C/c2c[nH]c3ccccc23)[nH]c1/C=C1\C=Nc2ccccc21 | 31.1 | – | 29.6 | 44.8 | – | > 100 | – | 79.4 | – | 48.4 | – | 26.7 | 84.5 | – | 38.1 | – | > 100 | – | – | –
13 | C/C(O)=C/c1nc2ccccc2nc1/C=C(/C)O | 56.4 | – | 40.7 | 57.3 | – | > 100 | – | 41 | – | 99.3 | – | 47.5 | 93.2 | – | 35.4 | – | 42.2 | – | – | –
